Data from patent US20240208992A1, “MACROCYCLES AS CFTR MODULATORS” (Idorsia Pharmaceuticals Ltd, priority 2021, published 2024).

Target: human F508del-CFTR (Homo sapiens, UniProt P13569, DEL508-508)
Test: F508del-CFTR cell surface expression (corrector activity), DiscoveRx ß-galactosidase complementation chemiluminescence assay in recombinant U2OS cell line;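 further: U2OS cells co-expressing ProLink-tagged F508del-CFTR and a membrane-anchored enzyme acceptor, where more surface CFTR restores β-galactosidase activity measured by chemiluminescence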
Settings: for EC50: EC50, F508del-CFTR cell surface expression, U2OS cells, 16h compound incubation, geomean values; for Emax: U2OS, in relation to Emax of corrector lumacaftor (=100%), arithmetic mean values

Sequence of human F508del-CFTR (P13569 with tags, fused parts or gaps DEL508-508): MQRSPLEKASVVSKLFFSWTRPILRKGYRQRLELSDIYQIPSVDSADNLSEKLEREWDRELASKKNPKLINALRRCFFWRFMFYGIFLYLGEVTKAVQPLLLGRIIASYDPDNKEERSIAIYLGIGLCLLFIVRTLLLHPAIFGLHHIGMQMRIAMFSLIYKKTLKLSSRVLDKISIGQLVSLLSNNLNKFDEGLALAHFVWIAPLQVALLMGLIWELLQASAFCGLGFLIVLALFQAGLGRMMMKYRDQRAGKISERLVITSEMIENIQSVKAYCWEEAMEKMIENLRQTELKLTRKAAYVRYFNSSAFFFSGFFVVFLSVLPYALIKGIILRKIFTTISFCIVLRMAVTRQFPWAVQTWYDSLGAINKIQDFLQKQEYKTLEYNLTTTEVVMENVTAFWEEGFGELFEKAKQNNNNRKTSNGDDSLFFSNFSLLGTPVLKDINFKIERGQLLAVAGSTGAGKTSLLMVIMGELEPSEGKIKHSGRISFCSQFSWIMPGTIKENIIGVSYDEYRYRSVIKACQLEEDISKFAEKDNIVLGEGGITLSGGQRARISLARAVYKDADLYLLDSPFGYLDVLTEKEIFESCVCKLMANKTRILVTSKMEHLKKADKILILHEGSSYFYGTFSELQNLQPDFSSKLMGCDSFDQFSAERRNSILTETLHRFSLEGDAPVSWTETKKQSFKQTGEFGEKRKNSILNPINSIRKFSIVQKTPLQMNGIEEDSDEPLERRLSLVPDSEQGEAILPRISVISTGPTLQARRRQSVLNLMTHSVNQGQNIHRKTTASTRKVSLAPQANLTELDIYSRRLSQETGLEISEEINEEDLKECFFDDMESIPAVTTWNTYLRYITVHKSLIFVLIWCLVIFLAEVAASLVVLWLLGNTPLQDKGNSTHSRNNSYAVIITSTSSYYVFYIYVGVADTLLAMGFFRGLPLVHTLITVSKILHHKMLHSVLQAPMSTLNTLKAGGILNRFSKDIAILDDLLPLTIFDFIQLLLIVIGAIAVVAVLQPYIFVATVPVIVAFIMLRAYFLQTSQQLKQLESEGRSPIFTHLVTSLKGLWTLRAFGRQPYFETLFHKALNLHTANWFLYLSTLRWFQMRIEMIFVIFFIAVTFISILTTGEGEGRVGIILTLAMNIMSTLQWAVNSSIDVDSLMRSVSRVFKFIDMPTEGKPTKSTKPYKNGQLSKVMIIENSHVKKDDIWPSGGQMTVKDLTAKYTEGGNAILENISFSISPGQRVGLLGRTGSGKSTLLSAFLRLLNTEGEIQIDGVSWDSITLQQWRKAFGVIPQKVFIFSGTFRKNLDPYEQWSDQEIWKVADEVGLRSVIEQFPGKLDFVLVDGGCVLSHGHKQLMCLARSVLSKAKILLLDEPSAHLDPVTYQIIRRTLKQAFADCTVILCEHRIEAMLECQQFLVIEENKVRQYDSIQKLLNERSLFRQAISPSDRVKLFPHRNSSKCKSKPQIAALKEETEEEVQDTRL

Row | EC50 [nM] | Emax [%] | Structure (SMILES)
1 | 104 | 301 | CC(C)C[C@H]1C(=O)N(C)C2(CCC2)C(=O)N[C@H](Cc2ccccc2)COc2cnc3ccc(F)cc3c2C(=O)N[C@H](C(=O)NCCc2nc(C3CC3)no2)CC(=O)N1C [Example 692, (3′S,7′S,13′R)-13′-benzyl-N-(2-(3-cyclopropyl-1,2,4-oxadiazol-5-yl)ethyl)-20′-fluoro-7′-isobutyl-6′,9′-dimethyl-1′,5′,8′,11′-tetraoxo-2′,3′,4′,5′,6′,7′,8′,9′,11′,12′,13′,14′-dodecahydro-1′H-spiro[cyclobutane-1,10′-[1]oxa[4,7,10,14]tetraazacycloheptadecino[17,16-c]quinoline]-3′-carboxamide]
2 | 201 | 237 | Cc1cc(CCNC(=O)[C@@H]2CC(=O)N(C)[C@@H](CC(C)C)C(=O)N(C)[C@@H](Cc3cccc4ccccc34)C(=O)N[C@H](Cc3ccccc3)COc3cnc4ccccc4c3C(=O)N2)on1 [Example 695, (3S,7S,10S,13R)-13-benzyl-7-isobutyl-6,9-dimethyl-N-(2-(3-methylisoxazol-5-yl)ethyl)-10-(naphthalen-1-ylmethyl)-1,5,8,11-tetraoxo-1,2,3,4,5,6,7,8,9,10,11,12,13,14-tetradecahydro-[1]oxa[4,7,10,14]tetraazacycloheptadecino[17,16-c]quinoline-3-carboxamide]
3 | 14 | 252 | CC(C)C[C@H]1C(=O)N(C)[C@H](CC2CCCCC2)C(=O)N[C@H](Cc2ccccc2)COc2cnc3ccc(F)cc3c2C(=O)N[C@H](C(=O)NCCc2nc(C3CC3)no2)CC(=O)N1C [Example 696, (3S,7S,10R,13R)-13-benzyl-10-(cyclohexylmethyl)-N-(2-(3-cyclopropyl-1,2,4-oxadiazol-5-yl)ethyl)-20-fluoro-7-isobutyl-6,9-dimethyl-1,5,8,11-tetraoxo-1,2,3,4,5,6,7,8,9,10,11,12,13,14-tetradecahydro-[1]oxa[4,7,10,14]tetraazacycloheptadecino[17,16-c]quinoline-3-carboxamide]
4 | 27 | 306 | CC(C)C[C@H]1C(=O)N(C)[C@H](CC2CCCCC2)C(=O)N[C@H](Cc2ccccc2)COc2cnc3ccc(F)cc3c2C(=O)N[C@H](C(=O)NCCc2cc(C3CC3)no2)CC(=O)N1C [Example 697, (3S,7S,10R,13R)-13-benzyl-10-(cyclohexylmethyl)-N-(2-(3-cyclopropylisoxazol-5-yl)ethyl)-20-fluoro-7-isobutyl-6,9-dimethyl-1,5,8,11-tetraoxo-1,2,3,4,5,6,7,8,9,10,11,12,13,14-tetradecahydro-[1]oxa[4,7,10,14]tetraazacycloheptadecino[17,16-c]quinoline-3-carboxamide]
5 | 199 | 313 | Cc1cc(CCNC(=O)[C@@H]2CC(=O)N(C)[C@@H](CC(C)C)C(=O)N(C)[C@H](Cc3cccc4ccccc34)C(=O)N[C@H](Cc3ccccc3)COc3cnc4ccccc4c3C(=O)N2)on1 [Example 698, (3S,7S,10R,13R)-13-benzyl-7-isobutyl-6,9-dimethyl-N-(2-(3-methylisoxazol-5-yl)ethyl)-10-(naphthalen-1-ylmethyl)-1,5,8,11-tetraoxo-1,2,3,4,5,6,7,8,9,10,11,12,13,14-tetradecahydro-[1]oxa[4,7,10,14]tetraazacycloheptadecino[17,16-c]quinoline-3-carboxamide]
6 | 299 | 338 | Cc1cc(CCNC(=O)[C@@H]2CC(=O)N(C)[C@@H](CC(C)C)C(=O)N(C)[C@H](CC(F)F)C(=O)N[C@H](Cc3ccccc3)COc3cnc4ccccc4c3C(=O)N2)on1 [Example 699, (3S,7S,10R,13R)-13-benzyl-10-(2,2-difluoroethyl)-7-isobutyl-6,9-dimethyl-N-(2-(3-methylisoxazol-5-yl)ethyl)-1,5,8,11-tetraoxo-1,2,3,4,5,6,7,8,9,10,11,12,13,14-tetradecahydro-[1]oxa[4,7,10,14]tetraazacycloheptadecino[17,16-c]quinoline-3-carboxamide]
7 | 295 | 162 | Cc1cc(CCNC(=O)[C@@H]2CC(=O)N(C)[C@@H](CC(C)C)C(=O)N(CC3Cc4ccccc4O3)CC(=O)N[C@H](Cc3ccccc3)COc3cnc4ccccc4c3C(=O)N2)on1 (stereo partly drawn) [Example 702, (3S,7S,13R)-13-benzyl-9-((2,3-dihydrobenzofuran-2-yl)methyl)-7-isobutyl-6-methyl-N-(2-(3-methylisoxazol-5-yl)ethyl)-1,5,8,11-tetraoxo-1,2,3,4,5,6,7,8,9,10,11,12,13,14-tetradecahydro-[1]oxa[4,7,10,14]tetraazacycloheptadecino[17,16-c]quinoline-3-carboxamide]
8 | 316 | 167 | Cc1cc(CCNC(=O)[C@@H]2CC(=O)N(C)[C@@H](CC(C)C)C(=O)N(CC[C@@H]3CCCCO3)CC(=O)N[C@H](Cc3csc4ccccc34)COc3cnc4ccccc4c3C(=O)N2)on1 [Example 703, (3S,7S,13R)-13-(benzo[b]thiophen-3-ylmethyl)-7-isobutyl-6-methyl-N-(2-(3-methylisoxazol-5-yl)ethyl)-1,5,8,11-tetraoxo-9-(2-((S)-tetrahydro-2H-pyran-2-yl)ethyl)-1,2,3,4,5,6,7,8,9,10,11,12,13,14-tetradecahydro-[1]oxa[4,7,10,14]tetraazacycloheptadecino[17,16-c]quinoline-3-carboxamide]
9 | 398 | 156 | Cc1cc(CCNC(=O)[C@@H]2CC(=O)N(C)[C@@H](CC(C)C)C(=O)N(C[C@H]3COc4ccccc4C3)CC(=O)N[C@H](Cc3ccccc3)COc3cnc4ccccc4c3C(=O)N2)on1 [Example 704, (3S,7S,13R)-13-benzyl-9-(((S)-chroman-3-yl)methyl)-7-isobutyl-6-methyl-N-(2-(3-methylisoxazol-5-yl)ethyl)-1,5,8,11-tetraoxo-1,2,3,4,5,6,7,8,9,10,11,12,13,14-tetradecahydro-[1]oxa[4,7,10,14]tetraazacycloheptadecino[17,16-c]quinoline-3-carboxamide]
10 | 305 | 193 | Cc1cc(CCNC(=O)[C@@H]2CC(=O)N(C)[C@@H](CC(C)C)C(=O)N(C[C@@H]3COc4ccccc4C3)CC(=O)N[C@H](Cc3ccccc3)COc3cnc4ccccc4c3C(=O)N2)on1 [Example 705, (3S,7S,13R)-13-benzyl-9-(((R)-chroman-3-yl)methyl)-7-isobutyl-6-methyl-N-(2-(3-methylisoxazol-5-yl)ethyl)-1,5,8,11-tetraoxo-1,2,3,4,5,6,7,8,9,10,11,12,13,14-tetradecahydro-[1]oxa[4,7,10,14]tetraazacycloheptadecino[17,16-c]quinoline-3-carboxamide]
11 | 707 | 162 | Cc1cc(CCNC(=O)[C@@H]2CC(=O)N(C)[C@@H](CC(C)C)C(=O)N(C[C@H]3CCCC(C)(C)O3)CC(=O)N[C@H](Cc3ccccc3)COc3cnc4ccccc4c3C(=O)N2)on1 [Example 706, (3S,7S,13R)-13-benzyl-9-(((R)-6,6-dimethyltetrahydro-2H-pyran-2-yl)methyl)-7-isobutyl-6-methyl-N-(2-(3-methylisoxazol-5-yl)ethyl)-1,5,8,11-tetraoxo-1,2,3,4,5,6,7,8,9,10,11,12,13,14-tetradecahydro-[1]oxa[4,7,10,14]tetraazacycloheptadecino[17,16-c]quinoline-3-carboxamide]

Row | Structure (SMILES) | EC50 [nM] | Emax [%]
12 | CC(C)C[C@H]1C(=O)N(C)[C@H](CC2CCCC2)C(=O)N[C@H](Cc2ccccc2)COc2cnc3ccc(F)cc3c2C(=O)N[C@H](C(=O)NCCc2noc(C3CC3)n2)CC(=O)N1C [Example 693, (3S,7S,10R,13R)-13-benzyl-10-(cyclopentylmethyl)-N-(2-(5-cyclopropyl-1,2,4-oxadiazol-3-yl)ethyl)-20-fluoro-7-isobutyl-6,9-dimethyl-1,5,8,11-tetraoxo-1,2,3,4,5,6,7,8,9,10,11,12,13,14-tetradecahydro-[1]oxa[4,7,10,14]tetraazacycloheptadecino[17,16-c]quinoline-3-carboxamide] | 40 | 401
13 | CC(C)C[C@H]1C(=O)N(C)[C@@H](CC2CCCC2)C(=O)N[C@H](Cc2ccccc2)COc2cnc3ccc(F)cc3c2C(=O)N[C@H](C(=O)NCCc2noc(C3CC3)n2)CC(=O)N1C [Example 694, (3S,7S,10S,13R)-13-benzyl-10-(cyclopentylmethyl)-N-(2-(5-cyclopropyl-1,2,4-oxadiazol-3-yl)ethyl)-20-fluoro-7-isobutyl-6,9-dimethyl-1,5,8,11-tetraoxo-1,2,3,4,5,6,7,8,9,10,11,12,13,14-tetradecahydro-[1]oxa[4,7,10,14]tetraazacycloheptadecino[17,16-c]quinoline-3-carboxamide] | 241 | 213
14 | CC(C)C[C@H]1C(=O)N(CC2COc3ccccc3C2)CC(=O)N[C@H](Cc2ccccc2)COc2ccc3ccccc3c2C(=O)N[C@H](C(=O)NCCc2ccc3c(c2)OCO3)CC(=O)N1C (stereo partly drawn) [Example 700, (3S,7S,13R)—N-(2-(Benzo[d][1,3]dioxol-5-yl)ethyl)-13-benzyl-9-(((S)-chroman-3-yl)methyl)-7-isobutyl-6-methyl-1,5,8,11-tetraoxo-1,2,3,4,5,6,7,8,9,10,11,12,13,14-tetradecahydronaphtho[1,2-p][1]oxa[4,7,10,14]tetraazacycloheptadecine-3-carboxamide] | 188 | 186
15 | COc1cccc(CCNC(=O)[C@@H]2CC(=O)N(C)[C@@H](CC(C)C)C(=O)N(CCC3CCCCC3)CC(=O)N[C@H](Cc3ccccn3)COc3ccc4ccccc4c3C(=O)N2)c1 [Example 701, (3S,7S,13R)-9-(2-cyclohexylethyl)-7-isobutyl-N-(3-methoxyphenethyl)-6-methyl-1,5,8,11-tetraoxo-13-(pyridin-2-ylmethyl)-1,2,3,4,5,6,7,8,9,10,11,12,13,14-tetradecahydronaphtho[1,2-p][1]oxa[4,7,10,14]tetraazacycloheptadecine-3-carboxamide] | 165 | 268
